This passage reports inhibition results from patent US20080254010A1, “Controlling Clostridium difficile-Associated Disease in the Gastrointestinal Tract” (priority 2007, published 2008).

For the test, the system named is C. difficile spores. As to the kind of experiment: Inhibition of germination of spores and/or inhibition of growth in Duncan and Foster growth medium. In kind it is cell-based, Clostridium difficile. Particulars: Clostridioides difficile; 0.7 mM in growth medium; by 17 h; read-out: inhibition of spore germination.

As for `CC/C=C\C/C=C\C/C=C\CCCCCCCC(=O)O` [linolenic acid], the inhibition at 700 µM was roughly 5%.
